pIC50: −log10 of the molar value.
Molecular target: T1, Human CARM1 (PRMT4) (Homo sapiens, UniProt Q86X55)
T1 construct: Flag-CARM1-His; made in house; host or cells: HEK 293F cells (BacMam baculovirus)
T1 sequence (Q86X55 1-585 isoform Q86X55-1): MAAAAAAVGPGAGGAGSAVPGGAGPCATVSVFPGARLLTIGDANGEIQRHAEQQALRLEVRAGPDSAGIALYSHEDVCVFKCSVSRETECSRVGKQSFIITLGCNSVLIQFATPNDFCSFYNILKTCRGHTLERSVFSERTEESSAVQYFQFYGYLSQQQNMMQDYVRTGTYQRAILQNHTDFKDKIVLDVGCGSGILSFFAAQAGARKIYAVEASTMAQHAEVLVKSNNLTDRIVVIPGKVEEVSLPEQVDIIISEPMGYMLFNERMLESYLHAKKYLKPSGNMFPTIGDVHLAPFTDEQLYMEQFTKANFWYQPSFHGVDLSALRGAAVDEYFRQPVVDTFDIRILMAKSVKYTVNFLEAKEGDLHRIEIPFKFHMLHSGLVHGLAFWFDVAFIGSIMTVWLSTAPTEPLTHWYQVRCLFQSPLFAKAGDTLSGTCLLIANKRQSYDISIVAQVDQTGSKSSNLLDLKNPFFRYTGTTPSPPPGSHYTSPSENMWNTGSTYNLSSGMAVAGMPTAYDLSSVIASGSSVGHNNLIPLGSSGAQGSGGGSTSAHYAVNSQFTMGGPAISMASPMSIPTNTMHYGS
Test: CARM1 Biochemical Assay
From the text: General Materials. S-adenosylmethionine (SAM), S-adenosylhomocysteine (SAH), bicine, Tween20, dimethylsulfoxide (DMSO), bovine skin gelatin (BSG), sodium butyrate and Tris(2-carboxyethyl)phosphine hydrochloride solution (TCEP) were purchased from Sigma-Aldrich at the highest level of purity possible. ^3H-SAM was purchase from American Radiolabeled Chemicals with a specific activity of 80 Ci/mmol. 384-well streptavidin Flashplates were purchased from PerkinElmer.
Substrates. Peptide representative of human histone H3 residues 16-30 was synthesized with an N-terminal linker-affinity tag motif and a C-terminal amide cap by 21st Century Biochemicals. The peptide was purified by high-performance liquid chromatography (HPLC) to greater than 95% purity and confirmed by liquid chromatography mass spectrometry (LC-MS). The sequence was Biot-Ahx-[…]-amide and contained a monomethylated arginine at position 26 (SEQ ID NO.: 14).
Molecular Biology: Human CARM1 (PRMT4) (NM_199141.1) transcript clone was amplified from an HEK 293 cDNA library, incorporating a flanking 5′ sequence encoding a FLAG tag ([…]) (SEQ ID NO.:6) fused directly to Ala 2 of CARM1 and 3′ sequence encoding a hexa His sequence ([…]) (SEQ ID NO.: 15) fused directly to Ser 608. The gene sequence encoding isoform1 containing a deletion of amino acids 539-561 was amplified subsequently and subcloned into pFastBacMam (Viva Biotech).
Protein Expression. Recombinant baculovirus were generated according to Bac-to-Bac kit instructions (Life Technologies). […] Infections were carried out at 37° C. for 48 hours, harvested by centrifugation, and stored at −80° C. for purification.
Protein Purification. […] Column was washed with 500 mM NaCl in buffer A and Flag-CARM1-His was eluted with 200 ug/ml FLAG peptide in buffer A. Pooled fractions were dialyzed in 20 mM Tris, 150 mM NaCl, 5% glycerol and 1 mM DTT, pH 7.8. The purity of recovered protein was 94.
General Procedure for CARM1 Enzyme Assays on Peptide Substrates. The assays were all performed in a buffer consisting of 20 mM Bicine (pH=7.6), 1 mM TCEP, 0.005% BSG, and 0.002% Tween 20, prepared on the day of use. Compounds in 100% DMSO (1 ul) were spotted into a polypropylene 384-well V-bottom plates (Greiner) using a Platemate Plus outfitted with a 384-channel head (Thermo Scientific). DMSO (1 ul) was added to Columns 11, 12, 23, 24, rows A-H for the maximum signal control and 1 ul of SAH, a known product and inhibitor of CARM1, was added to columns 11, 12, 23, 24, rows I-P for the minimum signal control. A cocktail (40 ul) containing the CARM1 enzyme was added by Multidrop Combi (Thermo-Fisher). The compounds were allowed to incubate with CARM1 for 30 min at room temperature, then a cocktail (10 ul) containing ^3H-SAM and peptide was added to initiate the reaction (final volume=51 ul). The final concentrations of the components were as follows: CARM1 was 0.25 nM, ^3H-SAM was 30 nM, peptide was 250 nM, SAH in the minimum signal control wells was 1 mM, and the DMSO concentration was 2%. The assays were stopped by the addition of non-radiolabeled SAM (10 ul) to a final concentration of 300 uM, which dilutes the ^3H-SAM to a level where its incorporation into the peptide substrate is no longer detectable. 50 ul of the reaction in the 384-well polypropylene plate was then transferred to a 384-well Flashplate and the biotinylated peptides were allowed to bind to the streptavidin surface for at least 1 hour before being washed once with 0.1% Tween20 in a Biotek EL×405 plate washer. The plates were then read in a PerkinElmer TopCount plate reader to measure the quantity of ^3H-labeled peptide bound to the Flashplate surface, measured as disintegrations per minute (dpm) or alternatively, referred to as counts per minute (cpm).
Where dpm=disintegrations per minute, cmpd=signal in assay well, and min and max are the respective minimum and maximum signal controls. […]

[1] = PRMT4 IC50, biochemical evaluation, CARM1 (PRMT4), peptide substrate
[2] = PRMT4 biochemical evaluation (numerical), single experiment or average of multiple experiments

| Compound | pIC50 [1] | pIC50 [2] |
| --- | --- | --- |
| CNCCN(C)Cc1n[nH]c2ccc(OC3CCCCC3)cc12 [Compound 18] | 6.00 to 7.00 |  |
| CNCCN(C)Cc1n[nH]c2ccc(Oc3cccc(OC)c3)cc12 [Compound 22] | 6.00 to 7.00 |  |
| CNCCN(C)Cc1n[nH]c2ccc(OCc3ccc(C(C)=O)cc3)cc12 [Compound 23] | 6.00 to 7.00 |  |
| CNCCN(C)Cc1n[nH]c2ccc(OC3CCOC3)cc12 (centres unmarked) [Compound 25, N^1,N^2-dimethyl-N^1-((5-((tetrahydrofuran-3-yl)oxy)-1H-indazol-3-yl)methyl)ethane-1,2-diamine] | 6.00 to 7.00 | 6.03 |
| CNCCN(C)Cc1n[nH]c2ccc(Oc3cccc(C)c3)cc12 [Compound 26] | 6.00 to 7.00 | 7.45 |
| CNCCN(C)Cc1n[nH]c2ccc(Oc3cccc(C#N)c3)cc12 [Compound 28] | 5.52 to 6.00 | 6.58 |
| CNCCN(C)Cc1n[nH]c2ccc(OC3CCOCC3)cc12 [Compound 29, N^1,N^2-dimethyl-N^1-((5-((tetrahydro-2H-pyran-4-yl)oxy)-1H-indazol-3-yl)methyl)ethane-1,2-diamine] | 6.00 to 7.00 | 6.35 |
| CNCCN(C)Cc1n[nH]c2cccc(OCCC(C)C)c12 [Compound 31] |  | 6.37 |
| CNCCN(C)Cc1nn(C)c2ccc(OCc3ccc(C#N)cc3)cc12 [Compound 32] | 6.00 to 7.00 | 6.73 |
| CNCCN(C)Cc1n[nH]c2ccc(OC)cc12 [Compound 35] | 5.00 to 5.52 |  |
| CNCCN(C)Cc1n[nH]c2ccc(O)cc12 [Compound 36, 3-((methyl(2-(methylamino)ethyl)amino)methyl)-1H-indazol-5-ol] | 5.00 to 5.52 | 5.21 |
| CNCCN(C)Cc1n[nH]c2ccc(Oc3ccc(C#N)cc3)cc12 [Compound 37] | 5.52 to 6.00 | < 5.00 |
| CNCCN(C)Cc1nn(C2CCN(C(C)=O)CC2)c2ccc(OCc3ccc(C#N)cc3)cc12 [Compound 38] | 5.52 to 6.00 | < 5.00 |
| CNCCN(C)Cc1n[nH]c2cccc(OCCC(O)CO)c12 (centres unmarked) [Compound 40] | 5.00 to 5.52 | 5.68 |
| CNCCN(C)Cc1n[nH]c2cccc(OCCCC(O)CO)c12 (centres unmarked) [Compound 41, 5-((3-((methyl(2-(methylamino)ethyl)amino)methyl)-1H-indazol-4-yl)oxy)pentane-1,2-diol] | 5.52 to 6.00 | 6.62 |
| CNCCN(C)Cc1n[nH]c2ccc(C(C)C)cc12 [Compound 42, N^1-((5-isopropyl-1H-indazol-3-yl)methyl)-N^1,N^2-dimethylethane-1,2-diamine] | 5.52 to 6.00 | 5.39 |
| CNCCN(C)Cc1n[nH]c2ccc(N3CCC4(CCCCC4)CC3)cc12 [Compound 43, N^1-((5-(3-azaspiro[5.5]undecan-3-yl)-1H-indazol-3-yl)methyl)-N^1,N^2-dimethylethane-1,2-diamine] | 6.00 to 7.00 | 5.75 |
| CNCCN(C)Cc1n[nH]c2ccc(C3CCOCC3)cc12 [Compound 44, N^1,N^2-dimethyl-N^1-((5-(tetrahydro-2H-pyran-4-yl)-1H-indazol-3-yl)methyl)ethane-1,2-diamine] | 6.00 to 7.00 | 5.99 |
| CNCCN(C)Cc1n[nH]c2ccc(C3CCCCC3)cc12 [Compound 47, N^1-((5-cyclohexyl-1H-indazol-3-yl)methyl)-N^1,N^2-dimethylethane-1,2-diamine] | 6.00 to 7.00 | 6.43 |
| CNCCN(C)Cc1n[nH]c2ccc(C3=CCCCC3)cc12 [Compound 48] | 6.00 to 7.00 | 6.36 |
| CNCCN(C)Cc1c2cc(OCc3ccc(C#N)cc3)ccc2nn1C1CCOCC1 [Compound 53] | 5.00 to 5.52 | < 5.00 |
| CNCCN(C)Cc1n[nH]c2ccc(OCC3CCCCC3)cc12 [Compound 54] | 5.00 to 5.52 | < 5.00 |
| CNCCN(C)Cc1n[nH]c2ccc(Oc3ccc(OC)cc3)cc12 [Compound 59] | > 7.00 | 6.50 |

Next, values leading:

| pIC50 [1] | pIC50 [2] | Compound |
| --- | --- | --- |
|  | 6.82 | CNCCN(C)Cc1n[nH]c2ccc(OCc3ccn(C)n3)cc12 [Compound 20] |
| > 7.00 | 6.94 | CNCCN(C)Cc1n[nH]c2ccc(Oc3ccccc3OC)cc12 [Compound 24] |
| 6.00 to 7.00 | 6.41 | CNCCN(C)Cc1n[nH]c2ccc(Oc3cccc(Cl)c3)cc12 [Compound 27, N^1-((5-(3-chlorophenoxy)-1H-indazol-3-yl)methyl)-N^1,N^2-dimethylethane-1,2-diamine] |
| 6.00 to 7.00 | 5.63 | CNCCN(C)Cc1n[nH]c2ccc(Oc3ccccc3Cl)cc12 [Compound 30] |
| 5.00 to 5.52 | 6.51 | CNCCN(C)Cc1c2cc(OCc3ccc(C#N)cc3)ccc2nn1C(C)C [Compound 34] |
| 6.00 to 7.00 | 5.54 | CNCCN(C)Cc1n[nH]c2ccc(Oc3ccc(C(F)(F)F)cc3)cc12 [Compound 39] |
| 6.00 to 7.00 | 6.80 | CNCCN(C)Cc1n[nH]c2ccc(C3=CCOCC3)cc12 [Compound 45] |
| 6.00 to 7.00 | 6.59 | CNCCN(C)Cc1n[nH]c2ccc(N3CCCCC3)cc12 [Compound 46, N^1,N^2-dimethyl-N^1-((5-(piperidin-1-yl)-1H-indazol-3-yl)methyl)ethane-1,2-diamine] |
| 5.00 to 5.52 | 6.22 | CNCCN(C)Cc1n[nH]c2ccc(Oc3ccccc3C(F)(F)F)cc12 [Compound 49] |
| 5.00 to 5.52 | 6.61 | CNCCN(C)Cc1n[nH]c2ccc(OCC3CCOCC3)cc12 [Compound 50] |
| 5.00 to 5.52 | < 5.00 | CNCCN(C)Cc1n[nH]c2ccc(OCC3CCN(C(C)=O)CC3)cc12 [Compound 51] |
| 5.00 to 5.52 | < 5.00 | CNCCN(C)Cc1n[nH]c2ccc(OCC3CCCC3)cc12 [Compound 52] |
| 6.00 to 7.00 | < 5.00 | CNCCN(C)Cc1n[nH]c2ccc(Oc3ccc(C)cc3)cc12 [Compound 55] |
| 6.00 to 7.00 | < 5.00 | CNCCN(C)Cc1n[nH]c2ccc(Oc3ccccc3OC(C)C)cc12 [Compound 56] |
| 6.00 to 7.00 | 6.48 | CNCCN(C)Cc1n[nH]c2ccc(Oc3ccc(Cl)cc3)cc12 [Compound 57] |
| 5.52 to 6.00 | 6.61 | CNCCN(C)Cc1n[nH]c2ccc(OC3CCN(C(C)=O)CC3)cc12 [Compound 58, 1-(4-((3-((methyl(2-(methylamino)ethyl)amino)methyl)-1H-indazol-5-yl)oxy)piperidin-1-yl)ethan-1-one] |
| 6.00 to 7.00 | 5.75 | CNCCN(C)Cc1n[nH]c2ccc(Oc3ccccc3C)cc12 [Compound 60] |

Source: US9765035B2 (priority 2013, dated 2017)
